Key:
[1] = tested on: normal NK cells expanded with K562-aAPC; assay: drug sensitivity score (DSS) (DSS units); higher = more sensitive; extreme values may be limits of the assay; conditions: 72 h; IL-2 2.5 ng/mL
Method: (§1)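 Drug sensitivity and resistance testing on K562-aAPC-expanded normal NK cells: 5 concentrations (10-fold steps over a 10,000-fold range), 72 h at 37 °C, viability by CellTiter-Glo normalised to DMSO and benzethonium chloride controls; DSS from the fitted curve.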

[2] = tested on: NK-YS (IL-2 2.5 ng/mL); assay: as above; conditions: 72 h
[3] = tested on: normal primary NK cells, pool 1 (3 donors), resting (IL-2 0 ng/mL); assay: as above; conditions: 72 h
[4] = tested on: SNK-6 (IL-2 2.5 ng/mL); assay: as above; conditions: 72 h
[5] = tested on: KHYG-1 (IL-2 2.5 ng/mL); assay: as above; conditions: 72 h
[6] = tested on: IMC-1 (IL-2 20 ng/mL); assay: as above; conditions: 72 h
[7] = tested on: YT (IL-2 2.5 ng/mL); assay: as above; conditions: 72 h
[8] = tested on: normal primary NK cells, pool 1 (3 donors) (IL-2 2.5 ng/mL); assay: as above; conditions: 72 h
[9] = tested on: KAI3 (IL-2 2.5 ng/mL); assay: as above; conditions: 72 h
[10] = tested on: NKL (IL-2 2.5 ng/mL); assay: as above; conditions: 72 h
[11] = tested on: normal primary NK cells, pool 3 (3 donors) (IL-2 2.5 ng/mL); assay: as above; conditions: 72 h
[12] = tested on: DERL-7 (IL-2 2.5 ng/mL); assay: as above; conditions: 72 h
[13] = tested on: NK-92 (IL-2 2.5 ng/mL); assay: as above; conditions: 72 h
[14] = tested on: normal primary NK cells, pool 2 (3 donors) (IL-2 2.5 ng/mL); assay: as above; conditions: 72 h
[15] = tested on: NK-YS (IL-2 2.5 ng/mL); assay: percent inhibition of viability; higher = more inhibition; conditions: 72 h
[16] = tested on: normal primary NK cells, pool 1 (3 donors), resting (IL-2 0 ng/mL); assay: as above; conditions: 72 h
[17] = tested on: SNK-6 (IL-2 2.5 ng/mL); assay: as above; conditions: 72 h
[18] = tested on: KHYG-1 (IL-2 2.5 ng/mL); assay: as above; conditions: 72 h
[19] = tested on: IMC-1 (IL-2 20 ng/mL); assay: as above; conditions: 72 h
[20] = tested on: YT (IL-2 2.5 ng/mL); assay: as above; conditions: 72 h
[21] = tested on: normal primary NK cells, pool 1 (3 donors) (IL-2 2.5 ng/mL); assay: as above; conditions: 72 h
[22] = tested on: KAI3 (IL-2 2.5 ng/mL); assay: as above; conditions: 72 h
[23] = tested on: NKL (IL-2 2.5 ng/mL); assay: as above; conditions: 72 h
[24] = tested on: normal primary NK cells, pool 3 (3 donors) (IL-2 2.5 ng/mL); assay: as above; conditions: 72 h
[25] = tested on: DERL-7 (IL-2 2.5 ng/mL); assay: as above; conditions: 72 h
[26] = tested on: NK-92 (IL-2 2.5 ng/mL); assay: as above; conditions: 72 h
[27] = tested on: normal primary NK cells, pool 2 (3 donors) (IL-2 2.5 ng/mL); assay: as above; conditions: 72 h
[28] = tested on: normal NK cells expanded with K562-aAPC; assay: as above; conditions: 72 h, IL-2 2.5 ng/mL
Method: as §1

CN(C)CCN1C(=O)c2cccc3cc(N)cc(c23)C1=O [Amonafide] (max concentration tested 10000 nM)
Conditions | drug sensitivity score
[1] | 9.65
[2] | 10
[3] | 6.59
[4] | 8.74
[5] | 8.07
[6] | 8.17
[7] | 7.63
[8] | 4.95
[9] | 10.4
[10] | 9.52
[11] | 6.87
[12] | 8.69
[13] | 9.91
[14] | 6.19

percent inhibition of viability [%]
Conditions | 1 nM | 10 nM | 100 nM | 1000 nM | 10000 nM
[15] | 2.33 | 5.61 | 10.8 | 30.8 | 102
[16] | 6.85 | -15.8 | -2.6 | 9.89 | 89.3
[17] | 21.2 | 8.85 | 20.2 | 23.6 | 99.5
[18] | 6.52 | 2.23 | 12.9 | 14.8 | 103
[19] | 1.06 | 3.1 | 5.35 | 15.8 | 100
[20] | 3.19 | 6.52 | 7.92 | 11.9 | 104
[21] | -3.82 | -10.6 | -8.88 | -6.27 | 97.5
[22] | 12.7 | 9.96 | 3.38 | 35.1 | 103
[23] | -9.44 | 0.79 | -4.03 | 33.1 | 89.8
[24] | 5.44 | -1.16 | 1.98 | 8.95 | 98.1
[25] | -0.77 | 2.31 | -12.6 | 19.6 | 101
[26] | 17.3 | 3.38 | 20.4 | 29.9 | 103
[27] | -8.57 | -3.21 | 0.92 | 6.12 | 95
[28] | 3.02 | 8.13 | 5.46 | 27.6 | 101

CCCc1cc(C)[nH]c(=O)c1CNC(=O)c1cc(-c2ccnc(N3CCN(C)CC3)c2)cc2c1cnn2C(C)C [GSK343] (max concentration tested 10000 nM)
Conditions | drug sensitivity score
[1] | 5.07
[2] | 6.26
[3] | 6.86
[4] | 5.02
[5] | 6.07
[6] | 4.86
[7] | 6
[8] | 6.41
[9] | 6.8
[10] | 5.27
[11] | 2.74
[12] | 6.76
[13] | 5.45
[14] | 0

percent inhibition of viability [%]
Conditions | 1 nM | 10 nM | 100 nM | 1000 nM | 10000 nM
[15] | -5.74 | -3.63 | -4.33 | 4.65 | 101
[16] | -0.38 | -4.24 | -14.9 | 10.5 | 92.6
[17] | -12.3 | 5.94 | -7.63 | -6.91 | 99.4
[18] | 0.04 | 1.72 | -6.82 | 3.86 | 99.8
[19] | -6.79 | -3.69 | -6.5 | -9.82 | 99.4
[20] | -0.53 | -1.05 | -6.88 | 3.69 | 99
[21] | 2.11 | -6.04 | -3.32 | 7.91 | 93.1
[22] | -6.07 | -1.68 | -2.65 | 8.26 | 99.1
[23] | -9.45 | -14.8 | -10.7 | -3.16 | 99.2
[24] | -4.17 | -3.24 | -2 | -6.83 | 59.2
[25] | 3.94 | -4.82 | 3.13 | 8.76 | 96.6
[26] | -15.4 | -9.54 | -9.12 | -0.4 | 98.1
[27] | -8.31 | -4.46 | -6.41 | -0.99 | -0.1
[28] | -1.65 | -5.79 | -7.46 | -5.85 | 99.2

Nc1nc(OCc2cc(Br)cs2)c2[nH]cnc2n1 [Lomeguatrib] (max concentration tested 10000 nM)
Conditions | drug sensitivity score
[1] | 0.49
[2] | 0.03
[3] | 0
[4] | 0
[5] | 0
[6] | 0
[7] | 0.19
[8] | 2.96
[9] | 0.96
[10] | 4.14
[11] | 0
[12] | 1.33
[13] | 0
[14] | 0.34

percent inhibition of viability [%]
Conditions | 1 nM | 10 nM | 100 nM | 1000 nM | 10000 nM
[15] | 1.57 | -2.53 | -4.74 | -3.26 | 12.7
[16] | 12.8 | 8.93 | 18.4 | 19.5 | 20.8
[17] | -7.32 | 6.29 | -7.89 | 4 | 9.3
[18] | 1.34 | -3.62 | -7.2 | -3.96 | 7.46
[19] | -11.5 | -6.71 | -6.4 | -6.2 | 8.26
[20] | -3.67 | -6.22 | -3.85 | 0.11 | 14.3
[21] | -4.41 | 4.97 | 9.83 | 16 | 26.1
[22] | 3.07 | -2.1 | -3 | 0.64 | 24.2
[23] | -4.89 | -6.45 | -9.35 | 8.52 | 51.3
[24] | 0.89 | -1.05 | 7.15 | 4.29 | 9.2
[25] | 4.42 | 1.17 | 2.11 | 0.21 | 29.9
[26] | -11.6 | -17.5 | -5.85 | -7.63 | 3.77
[27] | -5.64 | -7.78 | 3.47 | 3.5 | 14.1
[28] | -6.1 | -4.35 | -4.12 | -3.84 | 21

Source: the supplement of paper PMC5908809
